Laboratory results as given in patent publication US4599325A, “Substituted tyrosyl alanine dipeptide amides” (G. D. Searle & Co., priority 1985, dated 1986).
Structures can show the parent of a compound that is named as a salt. Where two headings read alike, the source gives them in different places.

Assays:
[1] = target: T1, delta opiate receptor (Rattus norvegicus, UniProt P33533); assay: Delta opiate receptor binding (3H-(D)-Ala2-(D)-Leu5 enkephalin); details: Table 2; 3H-(D)-Ala2-(D)-Leu5 enkephalin 0.2 nM, rat brain
T1 construct: The receptor membrane homogenate was prepared using rat brain; from tissue; host or cells: rat brain membrane homogenate
T1 sequence (P33533 whole entry): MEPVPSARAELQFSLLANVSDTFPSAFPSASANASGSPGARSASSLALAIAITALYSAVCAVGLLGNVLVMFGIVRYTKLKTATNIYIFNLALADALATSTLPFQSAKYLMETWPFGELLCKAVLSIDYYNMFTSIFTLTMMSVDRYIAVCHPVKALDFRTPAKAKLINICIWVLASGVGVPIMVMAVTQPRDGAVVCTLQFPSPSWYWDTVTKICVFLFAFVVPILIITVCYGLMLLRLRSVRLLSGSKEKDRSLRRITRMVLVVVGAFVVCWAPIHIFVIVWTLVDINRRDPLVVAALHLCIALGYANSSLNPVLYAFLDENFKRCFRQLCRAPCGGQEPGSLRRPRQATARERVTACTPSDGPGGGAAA
Method: (§1) Several subtypes of opiate receptors have been identified. These multiple receptors are thought to mediate the different effects of opiates, e.g., mu receptors are believed to mediate the analgesic activity of opiates. Therefore, the relative affinities of the test compounds for the mu and the delta opiate receptors was determined. The receptor membrane homogenate was prepared using rat brain as previously described in this document. The binding assays for the mu and delta receptors were performed using a modification of the method described by Chang and Cuatrecasas. K.-J. Chang and P. Cuatrecasas. Multiple Opiate receptors: enkephalins and morphine bind to receptors of different specificity, J. Biol. Chem. 254, 2610-2618 (1979). The incubation mixtures contained 0.75 ml of homogenate (1 mg protein/ml) and 0.05 ml of ^3 H-Dihydromorphine (final concentration of 0.2 nM) or 0.05 ml ^3 H-(D)-Ala^2 -(D)-Leu^5 enkephalin (final concentration of 0.2 nM). Both the displacer, naloxone, and the test compounds were added in 0.1 ml volumes. Finally, […] tris-HCl buffer (pH 7.4 at 25° C.) was added to bring the total volume up to 1 ml. The mixture were then incubated 60 minutes at 25° C. before filtering.
(§2) The IC50 values, i.e., the concentration of the test compound that inhibited ligand specific binding to its receptor by 50%, were calculated using log-probit analysis, D. J. Finney. […]

[2] = target: opiate receptors; assay: Opiate binding assay (displacement of 3H-Naloxone); parameters: species or system rat; details: for IC50: Table 1, 3H-Naloxone, rat brain membranes
Method: The test compounds were evaluated for their ability to displace the binding of ^3 H-Naloxone to opiate receptors isolate from rat brain. Male rats [COBS CD(SD)BR] obtained from Charles River Laboratories (Portage, MI) were sacrificed by cervical dislocation. A purified homogenate of receptor membranes was prepared from the brains according to the method described by Chang and Cuatrecasas. (K.-J. Chang and P. Cuatrecases. Multiple Opiate Receptors: Enkephalins And Morphine Bind To Receptors Of Different Specificity. J. Biol. Chem. 254, 2610-2618 (1979).) The brains were homogenized in 10 volumes of 0.32M sucrose and centrifuged twice at 6,000×g for 15 minutes. Following centrifugation of the supernatants at 40,000×g for 30 minutes, the pellets were allowed to swell, then centrifuged at 6,000 and 40,000×g. This process was repeated. The final pellet was resuspended in 2 volumes of 50 mM tris HCl (pH 7.4). The homogenate was assayed for protein content according to the method of Itzhaki and Gill. R. F. Itzhaki and D. M. Gill. A Micro-Biuret Method for Estimating Proteins. Anal. Biochem. 9, […] (1964).
The binding of the test compounds to the receptor membrane preparation was measured using a modification of the method of Pert and Snyder. C. B. Pert and S. H. Snyder. Properties of Opiate-Receptor Binding in Rat Brain. Proc. Natl. Acad. Sci. 70, 2243-2247 (1973). The receptor assay was run using 1 nM ^3 H-Naloxone and 2 ml of tissue homogenate (0.5 mg/ml protein concentration). Levorphanol (1×10^-5 M) was used as the displacer for non-specific binding. Both the displacer and the test compounds were added in 0.02 ml volumes. The assay was run in 0.05M tris HCl (pH 7.4) ±100 mM NaCl. Total assay volume was 2.03 ml.
Samples were incubated at 25° C. for 60 min., cooled on ice 5 min. and subsequently filtered over Whatman GF/C glass fiber filters with 2.4 ml washes of cold buffer. The filters were then solubilized in 1 ml of NCS at 50° C. for 1 hour. After solubilization, the pH was adjusted with 0.1 ml of glacial acetic acid, 10 ml of PCS was added and the samples were counted in a Nuclear Chicago Mark II liquid scintillation counter. This method was used for the following test compounds: Example 4, Example 5, Example 27, Example 28, Example 38, Example 39, and the prior art compound (4).
A modification of this method was used for the following test compounds: Example 16, Example 17, Example 21, Example 22, Example 24, Example 30, Example 31. In this modification, the total assay volume was adjusted to 1.0 ml. Samples were cooled on ice for 10 minutes and dried at 50° C. for 30 minutes, then 10 mls of PCS was added and the samples counted in a liquid scinitillation counter.
The IC50 values, the concentration of the test compounds which inhibited ^3 H-Naloxone specific binding to the opiate receptor by 50%, were obtained from log-probit plots of concentration-response curves. D. J. Finney. Probit Analysis. Cambridge University Press, London, 1947.

[3] = target: T2, mu opiate receptor (Rattus norvegicus, UniProt P33535); assay: Mu opiate receptor binding (3H-Dihydromorphine); details: Table 2; 3H-Dihydromorphine 0.2 nM, rat brain
T2 construct: The receptor membrane homogenate was prepared using rat brain; from tissue; host or cells: rat brain membrane homogenate
T2 sequence (P33535 whole entry): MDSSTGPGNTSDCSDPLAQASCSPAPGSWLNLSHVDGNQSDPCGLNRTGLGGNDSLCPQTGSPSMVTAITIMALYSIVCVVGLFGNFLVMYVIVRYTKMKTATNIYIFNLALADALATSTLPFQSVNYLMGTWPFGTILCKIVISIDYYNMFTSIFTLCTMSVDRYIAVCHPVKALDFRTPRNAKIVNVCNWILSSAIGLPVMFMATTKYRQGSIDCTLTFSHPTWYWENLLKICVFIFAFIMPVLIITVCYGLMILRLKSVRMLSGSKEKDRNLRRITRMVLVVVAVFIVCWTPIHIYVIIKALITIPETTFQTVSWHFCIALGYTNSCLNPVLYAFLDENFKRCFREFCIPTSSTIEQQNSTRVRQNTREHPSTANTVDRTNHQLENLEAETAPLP
Method: as §1, §2

[4] = tested on: mice; assay: Combined tail flick and hot plate tests: tail flick; assay type: in vivo, mouse; details: for ED50: Mus musculus, combined tail flick/hot plate; for activity in tail flick test: oral and subcutaneous, prior art at doses as great as 100 mg/kg p.o. and 50 mg/kg s.c.
Method: Male albino inbred mice supplied by Charles River (CD-1/HAM/1LR) weighing between 20 and 30 grams were used. Analgesia was first measured using the tail flick test in which a high intensity beam of light was focused on the blackened tail. The interval of time between onset of the light and reflex removal of the tail was defined as the tail flick latency. The average of two successive determinations was recorded. Following tail flick determination, the animals were immediately placed on a 55° C. copper hot plate to which they were restricted by an inverted 600 ml glass beaker. Hot plate latency was defined as the interval between placement on the hot plate and a behavioral response of either a jump or a hindpaw lick. One determination was recorded. Mice not responding within 4.0 seconds on the tail flick and 20.0 seconds on the hot plate were discarded from the study. The tail flick test and the hot plate test were stopped after 12.0 and 40 seconds, respectively, had elapsed to prevent tissue damage. After determination of pre-injection baseline latencies, the test compound was dissolved in distilled water and administered either orally or subcutaneously (0.1 ml/10 gram body weight). Tail flick and hot plate latencies were measured 10, 30, 60 and 90 minutes after injection. One-way analyses of variance were used to detect any significant increase in tail flick and hot plate latencies (indicative of analgesia) as compared to latencies prior to drug adminstration, as well as to establish the dose-dependence of any effect. A linear regression method (least squares) was used to determine the line of best fit. The ED50 dose was determined to be that dose of test compound that produced one-half the maximum measurable increase in latency. This corresponded to a post-drug tail flick latency of 7.5 seconds and hot plate latency of 25 seconds. G. Keppel: Design and analysis: a researcher's handbook, New Jersey, Prentice-Hall, 1973.

Row | Molecule | IC50 [1] | IC50 ([2]; hydrochloride) | affinity to the opiate receptor relative to the prior art compound ([2]; greater affinity than prior art compound) | IC50 [3] | ED50 ([4]; po, p.o., read-out: Tail Flick (ED50) p.o.) | ED50 ([4]; sc, s.c., read-out: Tail Flick (ED50) s.c.) | activity in tail flick test [4] | IC50 [2] | Tail Flick, activity at stated dose s.c. ([4]; 50 mg/kg s.c.) | Tail Flick, activity at stated dose p.o. ([4]; 100 mg/kg p.o.)
1 | Cc1cc(O)cc(C)c1C[C@H](N)C(=O)N[C@H](C)C(=O)NCCCc1ccccc1 [Example 5, 2,6-dimethyltyrosyl-N-(3-phenylpropyl)-D-alaninamide, hydrochloride] | 1.2 nM | 27 nM | tenfold | 0.1 nM | 115 mg/kg | 35 mg/kg | active |  |  | 
2 | tyrosine-D-alanine-phenylpropylamide [Prior Art, reference compound] | 62 nM |  |  | 8.8 nM |  |  | not active | 430 nM | Inactive | Inactive
